The target in assay [1] is Coagulation factor XI (Homo sapiens, UniProt P03951). As to the kind of experiment: Inhibition of human Factor XIa using Boc-Glu(OBzl)-Ala-Arg-AMC assessed as AMC release preincubated for 15 mins followed by substrate addition and measured after 10 mins by microplate fluorescence reader analysis.
The target of assay [2] is Plasma kallikrein (Homo sapiens, UniProt P03952). The experiment in a line: Inhibition of human PKa using H-Pro-Phe-Arg-AMC as substrate incubated for 15 mins by fluorescence reader analysis.
Plasma kallikrein, sequence (P03952 20-390 limits assumed): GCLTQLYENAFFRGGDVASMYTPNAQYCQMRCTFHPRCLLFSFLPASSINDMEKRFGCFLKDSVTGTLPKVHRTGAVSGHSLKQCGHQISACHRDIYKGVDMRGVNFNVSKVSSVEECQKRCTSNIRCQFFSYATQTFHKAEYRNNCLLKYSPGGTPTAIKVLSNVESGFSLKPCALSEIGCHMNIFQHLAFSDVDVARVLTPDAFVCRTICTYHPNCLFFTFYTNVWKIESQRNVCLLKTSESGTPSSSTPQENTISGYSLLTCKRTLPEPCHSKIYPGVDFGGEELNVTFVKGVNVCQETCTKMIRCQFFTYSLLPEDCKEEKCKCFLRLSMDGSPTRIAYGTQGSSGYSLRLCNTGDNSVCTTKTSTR
Plasma kallikrein, sequence (P03952 391-638 limits assumed): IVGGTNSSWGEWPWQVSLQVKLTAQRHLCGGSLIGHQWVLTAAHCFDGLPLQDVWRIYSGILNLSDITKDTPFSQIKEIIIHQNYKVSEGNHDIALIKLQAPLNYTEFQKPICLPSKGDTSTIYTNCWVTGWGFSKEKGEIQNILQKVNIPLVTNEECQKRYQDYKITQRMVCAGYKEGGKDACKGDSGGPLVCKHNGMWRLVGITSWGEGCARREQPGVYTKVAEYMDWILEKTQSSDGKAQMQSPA
The test system of assay [3] is Plasma. The experiment in a line: Anticoagulant activity in citrated human pooled plasma assessed as prolongation of prothrombin time incubated for 3 mins by PT reagent based semi-automated coagulometric analysis. In kind it is functional. Conditions: 0.05 h.
The subject of assay [4] is Plasma. As to the kind of experiment: Anticoagulant activity in citrated human pooled plasma assessed as prolongation of activated partial thromboplastin time incubated for 5 mins by aPTT reagent based semi-automated coagulometric analysis. The class given is functional.
Assay [5] has as its target Coagulation factor X (Homo sapiens, UniProt P00742). As to the kind of experiment: Inhibition of human Factor Xa using Boc-Ile-Glu-Gly-Arg-AMC as substrate incubated for 15 mins by fluorescence reader analysis.
Assay [6] concerns the target Trypsin (Homo sapiens, UniProt P07477+P07478+P35030). The experiment in a line: Inhibition of human trypsin using Boc-Ile-Glu-Gly-Arg-AMC as substrate incubated for 15 mins by fluorescence reader analysis. In kind it is protein assay.
Assay [7] addresses Prothrombin (Homo sapiens, UniProt P00734). As to the kind of experiment: Inhibition of human thrombin using Boc-Asp(OBzl)-Pro-Arg-AMC as substrate incubated for 15 mins by fluorescence reader analysis.

Coagulation factor X, sequence (P00742 41-179 limits assumed): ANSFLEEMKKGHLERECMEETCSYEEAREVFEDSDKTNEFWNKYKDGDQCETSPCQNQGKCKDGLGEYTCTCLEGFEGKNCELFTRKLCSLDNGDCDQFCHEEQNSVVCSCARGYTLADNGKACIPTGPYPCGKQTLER
Coagulation factor X, sequence (P00742 235-488 limits assumed): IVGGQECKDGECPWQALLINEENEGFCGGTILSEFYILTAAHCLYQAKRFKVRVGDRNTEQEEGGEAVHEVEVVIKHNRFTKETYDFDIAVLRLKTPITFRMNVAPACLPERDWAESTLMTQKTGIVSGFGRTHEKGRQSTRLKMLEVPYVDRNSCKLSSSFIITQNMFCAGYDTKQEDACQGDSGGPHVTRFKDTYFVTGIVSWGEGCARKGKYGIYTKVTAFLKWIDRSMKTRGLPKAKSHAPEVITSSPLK
Coagulation factor XI, sequence (P03951 19-387 limits assumed): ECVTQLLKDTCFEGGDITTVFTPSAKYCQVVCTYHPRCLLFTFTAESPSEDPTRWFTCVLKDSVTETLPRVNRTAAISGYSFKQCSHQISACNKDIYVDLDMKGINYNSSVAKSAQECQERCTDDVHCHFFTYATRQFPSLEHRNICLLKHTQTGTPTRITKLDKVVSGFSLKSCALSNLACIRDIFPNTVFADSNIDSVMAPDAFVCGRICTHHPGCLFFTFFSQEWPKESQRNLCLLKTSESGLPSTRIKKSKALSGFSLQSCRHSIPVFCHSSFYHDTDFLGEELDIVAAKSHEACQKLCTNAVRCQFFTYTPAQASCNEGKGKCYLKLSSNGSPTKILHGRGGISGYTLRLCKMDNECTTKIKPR
Coagulation factor XI, sequence (P03951 388-625 limits assumed): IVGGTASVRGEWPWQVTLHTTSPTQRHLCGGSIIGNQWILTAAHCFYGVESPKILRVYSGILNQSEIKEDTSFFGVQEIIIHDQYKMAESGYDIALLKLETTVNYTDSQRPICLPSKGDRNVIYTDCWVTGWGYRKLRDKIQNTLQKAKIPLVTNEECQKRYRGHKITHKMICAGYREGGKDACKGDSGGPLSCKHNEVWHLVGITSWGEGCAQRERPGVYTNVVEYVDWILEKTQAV

For `CCC(c1cn(-c2ccccc2)nn1)n1cc(OC)c(-c2cc(Cl)ccc2-n2cc(Cl)nn2)cc1=O` (centres undefined), the IC50 (usually the midpoint of a concentration-inhibition curve) came to 535 nM in assay [1] and 2590 nM in assay [2].
Take `COc1cn(C(Cc2ccccc2)c2cn(-c3cn[nH]c3)nn2)c(=O)cc1-c1cc(Cl)ccc1-n1cc(Cl)nn1` (centres undefined): the EC2 in assay [3] is above 100 µM. For the same compound, the IC50 turned out to be 21.4 nM in assay [1] and 683 nM in assay [2]. Further, the EC1.5 in assay [4] came out at 2.64 µM.
For `CCC(c1cn(-c2ccccc2C(=O)O)nn1)n1cc(OC)c(-c2cc(Cl)ccc2-n2cc(Cl)nn2)cc1=O` (centres undefined), the values for the IC50 in assay [1] and in assay [2] were 497 nM and 9800 nM, respectively.
For `CC[C@H](c1cn(-c2ccc(C(=O)OC)cc2)nn1)n1cc(OC)c(-c2cc(Cl)ccc2-n2cc(Cl)nn2)cc1=O`, the EC2 in assay [3] was above 100 µM. Also, the IC50 was 101000 nM in assay [5], 1100 nM in assay [1], 7850 nM in assay [2] and above 100000 nM in assay [6]. Besides, the EC1.5 in assay [4] turned out to be 392 µM.
For the compound `COc1cn(Cc2cn(-c3cnn(C)c3)nn2)c(=O)cc1-c1cc(Cl)ccc1-n1cc(Cl)nn1`, the IC50 in assay [1] is 288 nM; in assay [2], 3740 nM.
The corresponding values for `COc1cn(Cc2cn(-c3ccccc3)nn2)c(=O)cc1-c1cc(Cl)ccc1-n1cc(Cl)nn1` are 78.1 nM and 766 nM.
For `COc1cn(Cc2cn(-c3ccc(C(=O)O)cc3)nn2)c(=O)cc1-c1cc(Cl)ccc1-n1cc(Cl)nn1` the same measures were 38.7 nM and 832 nM.
The corresponding values for `COc1cn(Cc2cn(-c3ccc(Cl)nc3C#N)nn2)c(=O)cc1-c1cc(Cl)ccc1-n1cc(Cl)nn1` are 1090 nM and 15800 nM.
As for `CCC(c1cn(-c2cccc(C(=O)O)c2)nn1)n1cc(OC)c(-c2cc(Cl)ccc2-n2cc(Cl)nn2)cc1=O` (centres undefined), the 50% inhibitory concentration (IC50) in assay [1] turned out to be 259 nM; in assay [2], 822 nM.
The corresponding values for `COc1cn(C(Cc2ccccc2)c2cn(-c3ccccc3)nn2)c(=O)cc1-c1cc(Cl)ccc1-n1cc(Cl)nn1` (centres undefined) are 30.9 nM and 501 nM.
`CC[C@@H](c1cn(-c2ccc(C(=O)OC)cc2)nn1)n1cc(OC)c(-c2cc(Cl)ccc2-n2cc(Cl)nn2)cc1=O`: in assay [3], the EC2 was above 100 µM. Also, the IC50 in assay [5] came out at 4200 nM; in assay [1], 32 nM; in assay [7], 67700 nM; in assay [2], 643 nM; in assay [6], 82900 nM. For the same compound, in assay [4], the EC1.5 turned out to be 13.2 µM.
On to `COC(=O)c1ncccc1-n1cc(Cn2cc(OC)c(-c3cc(Cl)ccc3-n3cc(Cl)nn3)cc2=O)nn1`, for which the IC50 in assay [1] worked out at 2000 nM; in assay [2], 19700 nM.
As for `COc1cn([C@H](Cc2ccccc2)c2cn(-c3ccc(C(=O)O)cc3)nn2)c(=O)cc1-c1cc(Cl)ccc1-n1cc(C(F)(F)F)nn1`, the EC2 in assay [3] is above 100 µM. The IC50 in assay [5] was above 33000 nM; in assay [1], 102 nM; in assay [7], above 33000 nM; in assay [2], 2750 nM; in assay [6], 88200 nM. Also, the EC1.5 in assay [4] turned out to be 26.9 µM.
On to `COc1cn(C(Cc2ccccc2)c2cn(-c3ccc(C(=O)O)cc3)nn2)c(=O)cc1-c1cc(Cl)ccc1-n1cc(Cl)nn1` (centres undefined), for which the EC2 in assay [3] is above 100 µM. Further, the IC50 worked out at 48200 nM in assay [5]; 2.26 nM in assay [1]; 42000 nM in assay [7]; 141 nM in assay [2]; 26100 nM in assay [6]. Besides, the EC1.5 in assay [4] turned out to be 1.41 µM.
With `COC(=O)c1ccccc1-n1cc(Cn2cc(OC)c(-c3cc(Cl)ccc3-n3cc(Cl)nn3)cc2=O)nn1`, the IC50 in assay [1] amounted to 1660 nM; in assay [2], 11500 nM.
`COc1cn([C@H](Cc2ccccc2)c2cn(-c3ccc(C(=O)O)cc3)nn2)c(=O)cc1-c1cc(Cl)ccc1-n1cc(Cl)nn1`: in assay [3], the EC2 is above 100 µM. For the same compound, the IC50 in assay [5] was above 100000 nM; in assay [1], 96.3 nM; in assay [7], 46900 nM; in assay [2], 1870 nM; in assay [6] it was above 100000 nM. In addition, in assay [4], the EC1.5 turned out to be 29 µM.
`CCC(c1cn(-c2cnn(C)c2)nn1)n1cc(OC)c(-c2cc(Cl)ccc2-n2cc(Cl)nn2)cc1=O` (centres undefined): the IC50 worked out at 609 nM in assay [1] and 6520 nM in assay [2].
In the case of `CCC(c1cn(-c2ccccc2C(=O)OC)nn1)n1cc(OC)c(-c2cc(Cl)ccc2-n2cc(Cl)nn2)cc1=O` (centres undefined), the values for the IC50 in assay [1] and in assay [2] were 1960 nM and 4840 nM, respectively.
For `COC(=O)c1ccc(-n2cc(C(Cc3ccccc3)n3cc(OC)c(-c4cc(Cl)ccc4-n4cc(Cl)nn4)cc3=O)nn2)cc1` (centres undefined) the same measures were 27 nM and 522 nM.
The corresponding values for `COc1ccc(-n2cc(Cn3cc(OC)c(-c4cc(Cl)ccc4-n4cc(Cl)nn4)cc3=O)nn2)c(C)n1` are 917 nM and 15800 nM.
On to `CCC(c1cn(-c2cn[nH]c2)nn1)n1cnc(-c2cc(Cl)ccc2-n2cc(Cl)nn2)cc1=O` (centres undefined), for which the IC50 was determined as 6550 nM in assay [1] and 23400 nM in assay [2].
For `COc1cn(Cc2cn(-c3cccc(C(=O)O)c3)nn2)c(=O)cc1-c1cc(Cl)ccc1-n1cc(Cl)nn1` the same measures were 78.7 nM and 412 nM.
For `COc1cn(Cc2cn(-c3cccnc3C)nn2)c(=O)cc1-c1cc(Cl)ccc1-n1cc(Cl)nn1` the same measures were 1240 nM and 14400 nM.
The corresponding values for `COC(=O)c1cccc(-n2cc(Cn3cc(OC)c(-c4cc(Cl)ccc4-n4cc(Cl)nn4)cc3=O)nn2)c1` are 519 nM and 1060 nM.
For the compound `COc1cn(Cc2cn(-c3ccc(Cl)nc3C)nn2)c(=O)cc1-c1cc(Cl)ccc1-n1cc(Cl)nn1`, the IC50 in assay [1] was 1020 nM; in assay [2], 11100 nM.
In the case of `CC[C@@H](C(=O)Nc1ccc(C(N)=O)c(F)c1)n1cc(OC)c(-c2cc(Cl)ccc2-n2cc(C(F)(F)F)nn2)cc1=O`, the EC2 in assay [3] is above 100 µM. Besides, the IC50 was 7210 nM in assay [5], 6270 nM in assay [7] and 4050 nM in assay [6]. In addition, in assay [4], the EC1.5 came to 0.71 µM.
As to `COc1cn(Cc2cn(-c3cccnc3C(=O)O)nn2)c(=O)cc1-c1cc(Cl)ccc1-n1cc(Cl)nn1`, the concentration for half-maximal inhibition (IC50) in assay [1] was determined as 379 nM; in assay [2], 6800 nM.
The corresponding values for `COc1cn(Cc2cn(-c3cn[nH]c3)nn2)c(=O)cc1-c1cc(Cl)ccc1-n1cc(Cl)nn1` are 186 nM and 2060 nM.
The corresponding values for `COc1cn(Cc2cn(-c3cc(Br)cnc3C#N)nn2)c(=O)cc1-c1cc(Cl)ccc1-n1cc(Cl)nn1` are 2000 nM and 14200 nM.
`CCC(c1cn(-c2ccc(C(=O)OC)cc2)nn1)n1cc(OC)c(-c2cc(Cl)ccc2-n2cc(Cl)nn2)cc1=O` (centres undefined): the values for the IC50 in assay [1] and in assay [2] were 373 nM and 1490 nM, respectively.
Take `CCC(c1cn(-c2cnn(C(F)F)c2)nn1)n1cc(OC)c(-c2cc(Cl)ccc2-n2cc(Cl)nn2)cc1=O` (centres undefined): the IC50 is 1330 nM in assay [1] and 8130 nM in assay [2].
The corresponding values for `CCC(c1cn(-c2cccc(C(=O)OC)c2)nn1)n1cc(OC)c(-c2cc(Cl)ccc2-n2cc(Cl)nn2)cc1=O` (centres undefined) are 1600 nM and 2140 nM.
The corresponding values for `COC(=O)c1ccc(-n2cc(Cn3cc(OC)c(-c4cc(Cl)ccc4-n4cc(Cl)nn4)cc3=O)nn2)cc1` are 161 nM and 1970 nM.
In the case of `COc1cn(C(Cc2ccccc2)c2cn(-c3ccc(C(=O)O)cc3)nn2)c(=O)cc1-c1cc(Cl)ccc1-n1cc(C(F)(F)F)nn1` (centres undefined), in assay [3], the EC2 was above 100 µM. Besides, the IC50 worked out at 41200 nM in assay [5]; 1.31 nM in assay [1]; 53700 nM in assay [7]; 112 nM in assay [2]; 14200 nM in assay [6]. In addition, in assay [4], the EC1.5 turned out to be 0.81 µM.
Take `CCC(c1cn(-c2cn[nH]c2)nn1)n1cc(OC)c(-c2cc(Cl)ccc2-n2cc(Cl)nn2)cc1=O` (centres undefined): the IC50 came out at 379 nM in assay [1] and 2510 nM in assay [2].
`COc1cn(C(Cc2ccccc2)c2cn(-c3ccccc3)nn2)c(=O)cc1-c1cc(Cl)ccc1-n1cc(C(F)(F)F)nn1` (centres undefined): the results for the IC50 in assay [1] and in assay [2] were 30.9 nM and 746 nM, respectively.
For `COC(=O)c1ccc(-n2cc(C(Cc3ccccc3)n3cc(OC)c(-c4cc(Cl)ccc4-n4cc(C(F)(F)F)nn4)cc3=O)nn2)cc1` (centres undefined) the same measures were 38.3 nM and 643 nM.
For `CCC(c1cn(-c2ccccc2)nn1)n1cnc(-c2cc(Cl)ccc2-n2cc(Cl)nn2)cc1=O` (centres undefined) the same measures were 6340 nM and 47200 nM.
In the case of `COc1cn(C(Cc2ccccc2)c2cn(-c3cn[nH]c3)nn2)c(=O)cc1-c1cc(Cl)ccc1-n1cc(C(F)(F)F)nn1` (centres undefined), the EC2 in assay [3] is above 100 µM. In addition, the IC50 came out at 23.2 nM in assay [1] and 900 nM in assay [2]. Besides, in assay [4], the EC1.5 is 1.57 µM.
On to `CCC(c1cn(-c2ccc(C(=O)O)cc2)nn1)n1cc(OC)c(-c2cc(Cl)ccc2-n2cc(Cl)nn2)cc1=O` (centres undefined), for which the EC2 in assay [3] is above 100 µM. The IC50 worked out at 17400 nM in assay [5], 84.5 nM in assay [1], 655 nM in assay [2] and 93100 nM in assay [6]. For the same compound, the EC1.5 in assay [4] was determined as 25.4 µM.
As for `CCC(c1cn(-c2cnn(C)c2)nn1)n1cnc(-c2cc(Cl)ccc2-n2cc(Cl)nn2)cc1=O` (centres undefined), the IC50 was determined as 14600 nM in assay [1] and 87200 nM in assay [2].
For `COc1cn(Cc2cn(-c3ccccc3C(=O)O)nn2)c(=O)cc1-c1cc(Cl)ccc1-n1cc(Cl)nn1` the same measures were 272 nM and 11600 nM.

The values above are taken from ChEMBL document CHEMBL6087428, “Discovery of potent and selective factor XIa inhibitors incorporating triazole-based benzoic acid as novel P2' fragments: Molecular dynamics simulations and anticoagulant activity” (Eur J Med Chem, 2025).
